The values that follow come from patent publication US20230066011A1, “PYRROLOPYRIMIDINE DERIVATIVE, AND PHARMACEUTICAL COMPOSITION FOR PREVENTING OR TREATING PROTEIN KINASE-RELATED DISEASE COMPRISING SAME AS ACTIVE INGREDIENT” (VORONOI CO., LTD., priority 2019, published 2023).

Molecules are shown by their SMILES.

Holding throughout (format): biochemical
In one test the target is T1, human GST-DYRK1A (Homo sapiens, UniProt Q13627).
T1 construct: purified human GST-DYRK1A (full length, Thermo Scientifics) enzyme; purchased Thermo Scientifics
Kind of test: GST-DYRK1A enzyme inhibition, ADP-Glo kinase assay. The conditions noted are these: ATP 10 μM, GST-DYRK1A full length, read-out: DYRK1 IC50. In short, it runs like this: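 Full-length enzyme (10 ng) was incubated with 10 μM ATP and a specific substrate for 1 h at 25 °C in 40 mM Tris-HCl pH 7.4, 20 mM MgCl2, 0.5 mg/mL BSA, 50 μM DTT. Luminescence was read against a solvent control, and IC50 values were derived from 3 data sets.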
On the technique in general: ADP-Glo first removes unused ATP, then detects ADP through luciferase.

The target in another test is T2, human GST-CLK1 (Homo sapiens, UniProt P49759).
T2 construct: purified human GST-CLK1 (129-end, SignalChem) enzyme; purchased SignalChem
Kind of test: GST-CLK1 enzyme inhibition, ADP-Glo kinase assay. The conditions noted are these: ATP 10 μM, GST-CLK1 129-end. The method in brief:
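ADP-Glo luminescence read-out, relative to untreated solvent control, gave IC50 (nM) from triplicate data sets. Reactions ran an hour at 25° C with 3 ng GST-CLK1 (residues 129-end), 10 μM ATP and specific substrate in Tris-HCl pH 7.4 buffer with MgCl2, BSA and DTT.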

A further test deals with LRRK2 (G2019S) (Homo sapiens, UniProt Q5S007, G2019S). Kind of test: LRRK2 G2019S enzyme inhibition, ADP-Glo kinase assay. Set-up: purchased SignalChem L10-12GG. The conditions noted are these: ATP 25 μM. As for the experimental part:
To evaluate an inhibitory activity of the compound according to the present invention against LRRK2, LRRK2 (G2019S), DYRK1, CLK1, and TTK kinases, experiments were performed as follows.
Each of the Example compounds was reacted with a purified human LRRK2 G2019S (L10-12GG, SignalChem) enzyme to evaluate an ability to inhibit an enzyme using a method as described below. A composition of 40 mM Tris-HCl (pH 7.4), 20 mM MgCl2, 0.5 mg/mL BSA, and 50 μM DTT was used as a reaction buffer, and all reactions of test substances were performed in the reaction buffer. Each of the compounds was diluted […] from a 10 mM DMSO stock using a serial dilution method, and enzyme activities were measured at final compound concentrations of 50, 10, 2, 0.4, 0.08, 0.016, 0.0032, 0.00064, 0.000128, 0.0000256, 0.00000512, and 0.000001024 μM. In the test, purified ATP (25 μM) and an enzyme substrate (0.2 μg) were reacted with a human LRRK2 G2019S (16 ng) enzyme at 25° C. for 2 hours, and the enzyme activities were then determined using an in vitro ADP-Glo™ kinase assay (Promega). An enzyme-activity reaction solution, an ADP-Glo reaction solution, and an enzyme-ability detection solution were reacted at a ratio of 2:2:1 to measure a degree of inhibition of the enzyme activity with luminescence. The degree of inhibition of the enzyme activity according to the treatment concentration of each of the compounds was calculated based on the fluorescence of the enzyme activity of the solvent control which was not treated with the compound. In this case, the concentration of each of the compounds inhibiting 50% of the enzyme activity was determined to be an IC50 (nM) value, and calculated using Prism (Version 5.01; GraphPad) software.

T2 sequence (P49759 129-484 limits assumed): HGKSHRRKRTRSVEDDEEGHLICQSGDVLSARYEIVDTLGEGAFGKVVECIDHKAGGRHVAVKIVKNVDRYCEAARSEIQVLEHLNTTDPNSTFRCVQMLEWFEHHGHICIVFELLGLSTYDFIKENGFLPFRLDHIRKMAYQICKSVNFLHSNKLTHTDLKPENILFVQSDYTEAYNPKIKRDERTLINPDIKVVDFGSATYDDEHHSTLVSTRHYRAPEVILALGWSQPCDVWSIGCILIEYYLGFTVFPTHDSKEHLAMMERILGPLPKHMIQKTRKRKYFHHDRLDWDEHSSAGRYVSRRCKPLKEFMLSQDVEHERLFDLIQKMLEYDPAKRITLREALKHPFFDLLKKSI
LRRK2 (G2019S), sequence (Q5S007 970-2527 G2019S limits assumed): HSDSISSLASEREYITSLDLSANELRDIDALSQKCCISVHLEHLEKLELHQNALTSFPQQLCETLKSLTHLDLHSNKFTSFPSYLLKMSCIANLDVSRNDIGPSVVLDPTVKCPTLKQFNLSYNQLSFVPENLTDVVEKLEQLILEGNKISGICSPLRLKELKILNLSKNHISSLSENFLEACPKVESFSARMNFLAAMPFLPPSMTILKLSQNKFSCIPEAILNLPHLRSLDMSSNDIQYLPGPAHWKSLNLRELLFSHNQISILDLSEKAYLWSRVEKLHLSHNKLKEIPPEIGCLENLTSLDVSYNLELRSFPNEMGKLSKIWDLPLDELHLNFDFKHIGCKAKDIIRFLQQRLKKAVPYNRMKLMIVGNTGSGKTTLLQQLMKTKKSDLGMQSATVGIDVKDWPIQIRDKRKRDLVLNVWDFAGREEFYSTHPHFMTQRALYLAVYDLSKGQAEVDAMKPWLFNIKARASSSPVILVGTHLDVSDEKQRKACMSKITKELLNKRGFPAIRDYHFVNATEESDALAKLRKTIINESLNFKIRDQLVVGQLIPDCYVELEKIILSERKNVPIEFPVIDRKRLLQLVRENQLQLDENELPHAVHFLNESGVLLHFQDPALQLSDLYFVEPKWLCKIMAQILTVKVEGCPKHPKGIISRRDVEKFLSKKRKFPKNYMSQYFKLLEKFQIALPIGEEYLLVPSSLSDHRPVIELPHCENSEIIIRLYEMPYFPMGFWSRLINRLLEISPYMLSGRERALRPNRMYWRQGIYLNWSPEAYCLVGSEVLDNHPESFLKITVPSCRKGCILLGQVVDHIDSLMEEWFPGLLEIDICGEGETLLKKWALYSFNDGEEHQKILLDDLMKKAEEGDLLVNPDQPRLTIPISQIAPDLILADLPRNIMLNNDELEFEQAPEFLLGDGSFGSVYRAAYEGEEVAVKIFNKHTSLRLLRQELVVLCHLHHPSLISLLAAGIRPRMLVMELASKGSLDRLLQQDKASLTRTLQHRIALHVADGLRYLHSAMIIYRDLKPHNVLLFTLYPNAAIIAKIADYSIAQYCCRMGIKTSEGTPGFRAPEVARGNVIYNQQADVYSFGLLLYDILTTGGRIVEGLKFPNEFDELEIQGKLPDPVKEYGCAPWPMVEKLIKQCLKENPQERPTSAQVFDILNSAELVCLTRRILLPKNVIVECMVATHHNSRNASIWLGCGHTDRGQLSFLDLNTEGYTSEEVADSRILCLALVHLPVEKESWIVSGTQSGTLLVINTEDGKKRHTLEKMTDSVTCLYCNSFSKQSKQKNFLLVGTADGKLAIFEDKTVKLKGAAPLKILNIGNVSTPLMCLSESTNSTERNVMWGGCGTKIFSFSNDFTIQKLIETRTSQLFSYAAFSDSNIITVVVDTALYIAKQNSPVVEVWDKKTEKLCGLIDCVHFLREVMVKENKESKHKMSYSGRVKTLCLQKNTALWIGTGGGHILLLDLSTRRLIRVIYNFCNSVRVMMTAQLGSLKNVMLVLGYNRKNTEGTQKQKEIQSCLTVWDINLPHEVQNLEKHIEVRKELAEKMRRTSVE

For `O=C(c1ccc(Nc2nc(N[C@H]3CCOC3)c3c(C(F)(F)F)c[nH]c3n2)c2c1OCCO2)N1CCOCC1` [Example 209, (S)-morpholino(8-((4-((tetrahydrofuran-3-yl)amino)-5-(trifluoromethyl)-7H-pyrrolo[2,3-d]pyrimidin-2-yl)amino)-2,3-dihydrobenzo[b][1,4]dioxin-5-yl)methanone], the IC50 (usually the point on the concentration scale where inhibition reaches its midpoint) on human GST-DYRK1A is 301 to 1000 nM; against human GST-CLK1, < 100 nM; at LRRK2 (G2019S), < 100 nM.

Take `CC(C)Nc1nc(Nc2ccc(C(=O)N3CCOCC3)c3c2OCC3)nc2[nH]cc(C(F)(F)F)c12` [Example 449, (7-((4-(isopropylamino)-5-(trifluoromethyl)-7H-pyrrolo[2,3-d]pyrimidin-2-yl)amino)-2,3-dihydrobenzo-furan-4-yl) (morpholino) methanone]: the IC50 on human GST-DYRK1A was 301 to 1000 nM; against human GST-CLK1 it was < 100 nM; on LRRK2 (G2019S), < 100 nM.

Consider `N#Cc1c[nH]c2nc(Nc3ccc(C(=O)N4CC(CO)(CO)C4)c4c3OCCO4)nc(NC3CC3)c12` [Example 332, 2-((8-(3,3-bis (hydroxymethyl)azetidine-1-carbonyl)-2,3-dihydrobenzo[b] [1,4]dioxin-5-yl)amino)-4-(cyclopropyl-amino)-7H-pyrrolo[2,3-d]pyrimidine-5-carbonitrile], for which the IC50 on human GST-DYRK1A was 301 to 1000 nM; on human GST-CLK1, < 100 nM; against LRRK2 (G2019S), 101 to 300 nM.

With `COc1cc(P2(=O)CCN(C3CC3)CC2)ccc1Nc1nc(N[C@H]2CCOC2)c2c(C(F)(F)F)c[nH]c2n1` [Example 417, (S)-1-cyclo-propyl-4-(3-methoxy-4-((4-((tetrahydrofuran-3-yl)amino)-5-(trifluoromethyl)-7H-pyrrolo[2,3-d]pyrimidin-2-yl)amino)phenyl)-1,4-azaphosphinane 4-oxide], the IC50 on human GST-DYRK1A was 301 to 1000 nM; against human GST-CLK1 it was < 100 nM; on LRRK2 (G2019S), < 100 nM.

For `CC(C)Nc1nc(Nc2ccc(C(=O)N3CCOCC3)c3c2OCCO3)nc2[nH]ccc12` [Example 45, (8-((4-(isopropylamino)-7H-pyrrolo[2,3-d]pyrimidin-2-yl)amino)-2,3-dihydrobenzo[b][1,4]dioxin-5-yl)(morpholino)methanone 2,2,2-trifluoroacetate], the IC50 at human GST-DYRK1A was 301 to 1000 nM; on human GST-CLK1, 301 to 1000 nM; against LRRK2 (G2019S), < 100 nM.

For the compound `O=C(c1ccc(Nc2nc(NCC3CCCC3)c3c(C(F)(F)F)c[nH]c3n2)c2c1CCO2)N1CCOCC1` [Example 463, (7-((4-((cyclo-pentylmeth-yl)amino)-5-(trifluoromethyl)-7H-pyrrolo[2,3-d]pyrimidin-2-yl)amino)-2,3-dihydrobenzo-furan-4-yl) (morpholino) methanone], the IC50 at human GST-DYRK1A, against human GST-CLK1 and against LRRK2 (G2019S) was 301 to 1000 nM in each case.

On to `CC(C)CNc1nc(Nc2ccc(C(=O)N3CCOCC3)c3c2OCCO3)nc2[nH]cc(C#N)c12` [Example 121, 4-(isobutylamino)-2-((8-(morpholine-4-carbonyl)-2,3-dihydrobenzo[b][1,4]dioxin-5-yl)amino)-7H-pyrrolo[2,3-d]pyrimidine-5-carbonitrile], for which the IC50 is 301 to 1000 nM at human GST-DYRK1A, 101 to 300 nM against human GST-CLK1 and < 100 nM on LRRK2 (G2019S).

For `CNc1nc(Nc2ccc(S(=O)(=O)N3CCC(N4CCOCC4)CC3)cc2OC)nc2[nH]ccc12` [Example 3, N^2-(2-methoxy-4-((4-morpholinopiperidin-1-yl)sulfonyl)phenyl)-N^4-methyl-7H-pyrrolo[2,3-d]pyrimidine-2,4-diamine 2,2,2-trifluoroacetate], the figures for the IC50 on human GST-DYRK1A, against human GST-CLK1 and against LRRK2 (G2019S) were 301 to 1000 nM, 301 to 1000 nM and < 100 nM, respectively.

As to `COc1cc(S(=O)(=O)N2CCOCC2)ccc1Nc1nc(NC(C)C)c2cc[nH]c2n1` [Example 13, N^4-isopropyl-N^2-(2-methoxy-4-(morpholinosulfonyl)phenyl)-7H-pyrrolo[2,3-d]pyrimidine-2,4-diamine 2,2,2-trifluoroacetate], the results for the IC50 at human GST-DYRK1A, against human GST-CLK1 and at LRRK2 (G2019S) were 301 to 1000 nM, 301 to 1000 nM and < 100 nM, respectively.

With `O=C(c1ccc(Nc2nc(NC3CCOCC3)c3c(C(F)(F)F)c[nH]c3n2)c2c1CCO2)N1CCOCC1` [Example 456, morpholino(7-((4-((tetrahydro-2H-pyran-4-yl)amino)-5-(trifluoromethyl)-7H-pyrrolo[2,3-d]pyrimidin-2-yl)amino)-2,3-dihydrobenzo-furan-4-yl)methanone], the IC50 at human GST-DYRK1A is 301 to 1000 nM; on human GST-CLK1, < 100 nM; on LRRK2 (G2019S) it was < 100 nM.

Turning to `COCC(C)(C)Nc1nc(Nc2ccc(S(=O)(=O)N3CCC(N4CCOCC4)CC3)cc2OC)nc2[nH]ccc12` [Example 35, N^4-(1-methoxy-2-methylpropan-2-yl)-N^2-(2-methoxy-4-((morpholinopiperidin-1-yl)sulfonyl)phenyl)-7H-pyrrolo[2,3-d]pyrimidine-2,4-diamine], the IC50 at human GST-DYRK1A is 301 to 1000 nM; against human GST-CLK1 it was 101 to 300 nM; on LRRK2 (G2019S) it was < 100 nM.

`COc1cc(S(=O)(=O)N2CCOCC2)ccc1Nc1nc(NC2CCCC2)c2cc[nH]c2n1` [Example 25, N^4-cyclopentyl-N^2-(2-methoxy-4-(morpholinosulfonyl)phenyl)-7H-pyrrolo[2,3-d]pyrimidine-2,4-diamine 2,2,2-trifluoroacetate]: the IC50 on human GST-DYRK1A is 301 to 1000 nM; against human GST-CLK1, 301 to 1000 nM; against LRRK2 (G2019S) it was < 100 nM.

`COc1cc(S(=O)(=O)N2CCOCC2)ccc1Nc1nc(NCC2CCCC2)c2cc[nH]c2n1` [Example 40, N^4-(cyclopentylmethyl)-N^2-(2-methoxy-4-(morpholinosulfonyl)phenyl)-7H-pyrrolo[2,3-d]pyrimidine-2,4-diamine 2,2,2-trifluoroacetate]: the IC50 at human GST-DYRK1A, on human GST-CLK1 and on LRRK2 (G2019S) was 301 to 1000 nM each time.

In the case of `O=C(c1ccc(Nc2nc(NC3CCOCC3)c3cc[nH]c3n2)c2c1OCCO2)N1CCOCC1` [Example 52, morpholino(8-((4-((tetrahydro-2H-pyran-4-yl)amino)-7H-pyrrolo[2,3-d]pyrimidin-2-yl)amino)-2,3-dihydrobenzo[b][1,4]dioxin-5-yl)methanone 2,2,2-trifluoroacetate], the results for the IC50 at human GST-DYRK1A, on human GST-CLK1 and at LRRK2 (G2019S) were 301 to 1000 nM, 301 to 1000 nM and < 100 nM, respectively.

With `CCCCNc1nc(Nc2ccc(C(=O)N3CCOCC3)c3c2OCC3)nc2[nH]cc(C(F)(F)F)c12` [Example 465, (7-((4-(butylamino)-5-(trifluoromethyl)-7H-pyrrolo[2,3-d]pyrimidin-2-yl)amino)-2,3-dihydrobenzo-furan-4-yl) (morpholino) methanone], the IC50 on human GST-DYRK1A was 301 to 1000 nM; against human GST-CLK1, 301 to 1000 nM; against LRRK2 (G2019S), < 100 nM.

Consider `CC[C@H](C)Nc1nc(Nc2ccc(P(C)(C)=O)cc2OC)nc2[nH]cc(C(F)(F)F)c12` [Example 385, (S)-(4-((4-(sec-butylamino)-5-(trifluoromethyl)-7H-pyrrolo[2,3-d]pyrimidin-2-yl)amino)-3-methoxyphenyl) dimethyl-phosphine oxide], for which the IC50 on human GST-DYRK1A is 301 to 1000 nM; against human GST-CLK1, 301 to 1000 nM; on LRRK2 (G2019S), < 100 nM.

As to `COc1cc(S(=O)(=O)N2CCC(N3CCOCC3)CC2)ccc1Nc1nc(NC2CCC2)c2cc[nH]c2n1` [Example 23, N^4-cyclobutyl-N^2-(2-methoxy-4-((4-morpholinopiperidin-1-yl)sulfonyl)phenyl)-7H-pyrrolo[2,3-d]pyrimidine-2,4-diamine 2,2,2-trifluoroacetate], the values for the IC50 on human GST-DYRK1A, on human GST-CLK1 and on LRRK2 (G2019S) were 301 to 1000 nM, 301 to 1000 nM and < 100 nM, respectively.

On to `COc1cc(S(=O)(=O)N2CCC(N3CCOCC3)CC2)ccc1Nc1nc(NCC(C)C)c2cc[nH]c2n1` [Example 11, N^4-isobutyl-N^2-(2-methoxy-4-((4-morpholinopiperidin-1-yl)sulfonyl)phenyl)-7H-pyrrolo[2,3-d]pyrimidine-2,4-diamine], for which the IC50 at human GST-DYRK1A is 301 to 1000 nM; at human GST-CLK1, 301 to 1000 nM; on LRRK2 (G2019S), < 100 nM.
